Test results as given in patent US5500427A, “Cyclic compounds and their use” (Takeda Chemical Industries, Ltd., priority 1992, dated 1996).

Experiments:
[1] = test system: AII-induced Pressor Response; assay: Inhibitory Effect of the Compound of the Present Invention on AII-induced Pressor Response; type: in vivo; conditions: A-II 100 ng/kg i.v., male Jcl:SD rats
Excerpt: Inhibitory Effect of the Compound of the Present Invention on AII-induced Pressor Response
Jcl:SD rats (9 week old, male) were used. On the previous day of the experiment, rats were applied with cannulation into the femoral artery and vein under anesthesia with pentobarbital Na. These animals were fasted but allowed to access freely to drinking water until the experiment was started. Just on the day of conducting the experiment, the artery cannula was connected with a blood-pressure transducer, and the average blood pressure was recorded by polygraph. Before administration of the drug, the pressor action due to intravenous administration of A-II (100 ng/kg) as the control was determined. The drugs were orally administered, then, at each point of the determination, A-II was administered intravenously, and the pressor action was similarly determined. By comparing the pressor action before and after administration of the drug, the percent inhibition by the drug was evaluated.

[2] = target: T1, angiotensin II receptor (Bos taurus, UniProt P25104); assay: Inhibitory Effect of Binding of Angiotensin-II to Angiotensin II Receptor (radioreceptor assay); conditions: 125I-angiotensin II, bovine adrenal cortex membrane, room temperature, one hour; for inhibition at 1 µM: 10^-6 M; for inhibition at 0.1 µM: 10^-7 M
T1 construct: An A-II receptor membrane fraction was prepared from bovine adrenal cortex; from tissue; host or cells: bovine adrenal cortex membrane fraction
T1 sequence (P25104 1-359): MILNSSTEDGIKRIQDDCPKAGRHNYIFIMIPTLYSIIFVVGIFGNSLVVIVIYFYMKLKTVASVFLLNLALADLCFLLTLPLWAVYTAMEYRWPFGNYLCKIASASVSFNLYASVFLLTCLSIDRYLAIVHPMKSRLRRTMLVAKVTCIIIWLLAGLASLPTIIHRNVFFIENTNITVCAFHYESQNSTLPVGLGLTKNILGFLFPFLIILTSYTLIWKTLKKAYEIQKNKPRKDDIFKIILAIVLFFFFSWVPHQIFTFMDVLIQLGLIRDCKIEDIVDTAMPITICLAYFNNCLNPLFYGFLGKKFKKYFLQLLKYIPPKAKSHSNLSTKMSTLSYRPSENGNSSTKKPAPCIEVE
Protocol: Inhibitory Effect of Binding of Angiotensin-II to Angiotensin II Receptor
An experiment of inhibition on the binding of angiotensin II (A-II) receptor was performed by modified the method of Douglas et al. [Endocrinology, 102, 685-696 (1978)]. An A-II receptor membrane fraction was prepared from bovine adrenal cortex.
The compound of the present invention (10^-6 M or 10^-7 M) and ^125 I-angiotensin II (^125 I-AII) (2.44 KBq/50 microliter) were added to the receptor membrane fraction, and the mixture was incubated at room temperature for one hour. The receptor-bound and free I-AII were separated through a filter (Whatman GF/B filter), and the radioactivity of ^125 I-AII bound to the receptor was determined.

Compound	Pressor Response [p.o.] (percent inhibition of A-II pressor action) ([1]; 1 mg/kg p.o.)	inhibition at 1 µM [2] [%]	inhibition at 0.1 µM [2] [%]	Pressor Response [p.o.] (percent inhibition of A-II pressor action) ([1]; 0.3 mg/kg p.o.)
CCCCN(Cc1ccc(-c2ccccc2-c2nc(=O)o[nH]2)cc1)c1ncccc1C(=O)O [Example 6, 2-[N-butyl-N-[2'-(2,5-dihydro-5-oxo-1,2,4-oxadiazol-3-yl)biphenyl-4-yl]methylamino]pyridine-3-carboxylic acid]	+++ (+++ ≥ 70%)	55	16	
CCCN(Cc1ccc(-c2ccccc2-c2noc(=O)[nH]2)cc1)c1ncccc1C(=O)O [Example 2]	+++ (+++ ≥ 70%)	52	17	+++ (+++ ≥ 70%)
CCCN(Cc1ccc(-c2ccccc2-c2nsc(=O)[nH]2)cc1)c1ncccc1C(=O)O [Example 4]	+++ (+++ ≥ 70%)	61	20	
